Laboratory results reported in patent US20260207600A1, “METHODS OF TREATMENT WITH MYOSIN MODULATOR” (MYOKARDIA, INC., priority 2019, published 2026).
Entries after “also recorded” stand apart in the source; their conditions may differ. Read-outs that look alike come from different tables or passages of the source.

Tests used:
CYP2C19 = CYP2C19 (Homo sapiens, UniProt P33261); assay: In vitro contribution of CYP enzymes to mavacamten metabolism; assay type: in vitro ADME
[1] = test system: subjects with obstructive HCM; conditions: human, in vivo; cited from earlier work
anaesthetized rats = assay: Counteraction of mavacamten effects by dobutamine in anaesthetized rats; assay type: in vivo, rat
Source text: Additional supportive measures, e.g., intravenous volume supplementation and/or the use of arterial vasoconstrictor agents (a adrenergic agonists) may complement the use of a β adrenergic agonist.

[2] = test system: conscious fully-instrumented dogs with normal cardiac function; assay: Acute β-AR (dobutamine) challenge after mavacamten in conscious instrumented dogs; assay type: in vivo, dog
Protocol: In addition, the effects of MAVA (at 1.5 mg/kg PO, via gavage) on cardiac reserve were evaluated via acute β-AR challenges (dobutamime: 2, 5, and 10 ug/kg/min IV) in conscious fully-instrumented (LVPV group) dogs with normal cardiac function (n=8). These challenges were performed before/after dosing (+3-hour) in control- and MAVA-treated animals both under normal cardiac physiological conditions (n=4) and under (mild) concomitant cardio-depression induced via either selective β-AR blockade (+BB, metoprolol 0.5±0.1 mg/kg PO tid; n=4) or L-type Ca2+-channel blockade (+CCB, verapamil at 5±1 mg/kg PO tid; n=4); pharmacological blockades were established for 7 days prior to the MAVA treatment. Both peak and dose-responses were evaluated at steady state.
Throughout these experiments, analog signals were digitally acquired (1000 Hz) and recorded continuously with a data acquisition/analysis system (IOX; EMKA Technologies). Heart rate (HR), end-systolic (ESP) and end-diastolic pressures (EDP), as well as the peak rates of pressure rise/decline (dP/dtmax and dP/dtmin), the contractility index (CI: dP/dt/P at dP/dtmax), and the time-constant of myocardial relaxation (tau½, time for 50% decay from dP/dtmin) were derived from the LV pressure signal. Meanwhile, the end-systolic (ESV) and end-diastolic volumes (EDV) were measured from the LV volume signal derived from the implanted myocardial crystals. LV volumes were derived assuming a Teichholz model, and stroke volume (SV=EDV−ESV), ejection fraction (EF=SV/EDV), as well as cardiac output (CO=SV·HR) were calculated; in a subset of animals, SV and CO values were verified from data derived from the implanted aortic flow proble. […] The slopes of the preload-recruitable stroke work (PRSW; stroke work vs. EDV) and the end-systolic pressure-volume relationships (ESPVR; end-systolic elastance, Ees) were derived by software using linear models (IOX; EMKA Technologies), and were used as load-independent inotropic indices. Ventricular load was estimated by the effective arterial elastance (Ea=ESP/SV). […]

[3] = Stable form analysis (slurry experiments, XRPD); assay type: physicochemical; conditions: for XRPD Result (stable form screening): Lot 2-4
Protocol: Slurrying. Slurries of the API were prepared by adding sufficient solids to a given solvent or solvent system at ambient conditions or at elevated temperature such that undissolved solids were present. The mixtures were then agitated in a closed vial at ambient or elevated temperature for an extended period of time. Solids were collected by vacuum filtration and analyzed.
A stable form analysis of the API (Lot 2-4) was performed to identify the preferred solid form within typical process conditions (e.g., ambient to 85° C., atmospheric pressure, with a variety of solvents including water).
A total of 17 slurries were held stirring at ambient temperature or with temperature cycling between 20 and 30 or 40° C. (with a few brief exposures to approximately 46° C.) for extended time periods (Table 13.4). Solids from the slurry experiments were filtered, air-dried, then analyzed by XRPD.

CYP2C9 = CYP2C9 (Homo sapiens, UniProt P11712); assay: In vitro contribution of CYP enzymes to mavacamten metabolism; assay type: in vitro ADME
[4] = Half-life and clearance analysis from early clinical studies by CYP2C19 metabolizer phenotype; assay type: in vivo, human; conditions: for half-life / clearance: oral; for clearance: read-out: clearance rate
Protocol: The effect of CYP2C19 phenotype and genotype on the metabolism function of the CYP2C19 enzyme has been presently investigated. […] Specifically, normal metabolizers typically have a half-life of from about 6 to about 9 days, e.g., about 7 days (1 week), whereas poor metabolizers have a longer half-life, e.g., from about 12 to about 30 days, or often from about 16 to about 28 days based on current data in humans.
Half-life and clearance rate were analyzed after a single oral dose. Clearance rate was calculated as CL=Dose*F/AUCinf. […] Half-life and clearance rate were analyzed after the last dose upon reaching steady state. Clearance rate was calculated as CL,ss=Dose*F/AUC(0-T). Both trials were combined and analyzed by one-way ANOVA, followed by Tukey's multiple comparison test.
UM (rapid/ultra-rapid metabolizer) is *1/*17 or *17/*17; EM (extensive metabolizer) is *1/*1; IM (intermediate metabolizer) is *1/*2 or *17/*2; and PM (poor metabolizer) is *2/*2 or *2/*3.
Similar studies were performed for CYP3A5 and CYP2C9 polymorphisms.

CYP3A4/5 = assay: In vitro contribution of CYP enzymes to mavacamten metabolism; assay type: in vitro ADME
[5] = human, in vivo, CYP2C19 normal metabolizers
[6] = human, in vivo, CYP2C19 poor metabolizers

Chain of CYP2C9 (P11712 whole entry): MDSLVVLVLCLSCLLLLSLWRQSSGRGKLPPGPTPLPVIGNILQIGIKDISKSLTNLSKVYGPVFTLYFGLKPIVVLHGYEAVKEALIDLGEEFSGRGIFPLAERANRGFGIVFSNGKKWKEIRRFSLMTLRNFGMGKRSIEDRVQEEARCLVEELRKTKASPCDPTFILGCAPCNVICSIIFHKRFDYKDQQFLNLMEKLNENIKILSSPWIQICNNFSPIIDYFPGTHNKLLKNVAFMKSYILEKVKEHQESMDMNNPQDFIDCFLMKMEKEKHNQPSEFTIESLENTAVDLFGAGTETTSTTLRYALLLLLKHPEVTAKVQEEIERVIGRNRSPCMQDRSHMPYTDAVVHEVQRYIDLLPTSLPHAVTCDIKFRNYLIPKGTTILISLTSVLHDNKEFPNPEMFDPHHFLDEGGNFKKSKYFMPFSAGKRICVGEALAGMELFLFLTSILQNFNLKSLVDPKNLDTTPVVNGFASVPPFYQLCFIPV
Chain of CYP2C19 (P33261 whole entry): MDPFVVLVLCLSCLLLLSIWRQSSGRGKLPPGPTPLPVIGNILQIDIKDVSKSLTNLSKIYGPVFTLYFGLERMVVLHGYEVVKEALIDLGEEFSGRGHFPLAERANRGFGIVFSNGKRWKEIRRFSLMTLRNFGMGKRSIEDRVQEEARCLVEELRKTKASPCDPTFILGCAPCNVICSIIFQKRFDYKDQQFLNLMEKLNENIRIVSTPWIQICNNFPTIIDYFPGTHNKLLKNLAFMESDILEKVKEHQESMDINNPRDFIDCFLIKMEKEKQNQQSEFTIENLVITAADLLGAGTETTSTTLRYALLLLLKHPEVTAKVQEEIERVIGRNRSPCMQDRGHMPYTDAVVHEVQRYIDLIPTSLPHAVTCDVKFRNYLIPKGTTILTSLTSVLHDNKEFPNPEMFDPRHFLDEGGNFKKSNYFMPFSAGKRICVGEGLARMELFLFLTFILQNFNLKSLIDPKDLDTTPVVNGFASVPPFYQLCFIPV

SMILES: CC(C)n1c(=O)cc(N[C@@H](C)c2ccccc2)[nH]c1=O [mavacamten, (S)-3-Isopropyl-6-((1-phenylethyl)amino)pyrimidine-2, 4(1H,3H)-dione]
- percent contribution to the metabolism of mavacamten (CYP2C19): 74%
- Obstruction of the left ventricular outflow tract [1]: reduced or eliminated the obstruction of the left ventricular outflow tract
- Reversal of pharmacologic effects by β adrenergic agonist (anaesthetized rats): can be counteracted by β adrenergic agonists
- β-AR induced acceleration of tau ([2]; at any given dP/dtmax gain): enhanced the β-AR induced acceleration of tau
- dobutamine-triggered stroke-volume/cardiac output recruitments ([2]; before (control) vs under acute mavacamten treatment): comparable stroke-volume/cardiac output recruitments
- β-AR elevations in dP/dtmax and CI ([2]; dobutamine challenge): blunted β-AR elevations in dP/dtmax and CI
- solid form obtained from slurry experiments (XRPD) ([3]; 17 slurries, ambient temperature or cycling between 20 and 30 or 40° C., extended time): All slurry experiments yielded Form A, except one with chloroform
- XRPD Result (stable form screening) ([3]; Anisole, Slurry, ~50° C., 4 d): Form A
- XRPD Result (stable form screening) ([3]; CHCl3, TC, 20 to 30° C., 10 d): Form A +
- XRPD Result (stable form screening) ([3]; DCM, Slurry, RT, 17 d): Form A
- XRPD Result (stable form screening) ([3]; DMF:CHCl3 (20:80), Slurry, RT, 17 d): Form A
- XRPD Result (stable form screening) ([3]; DMF:EtOH (20:80), Slurry, RT, 17 d): Form A
- XRPD Result (stable form screening) ([3]; DMSO:water (90:10), Slurry, RT, 3 d, TC, 20 to 30° C., 10 d): Form A
- XRPD Result (stable form screening) ([3]; EtOAc, TC 20 to 40° C., 10 d): Form A
- XRPD Result (stable form screening) ([3]; EtOH, TC 20 to 40° C., 10 d): Form A
- XRPD Result (stable form screening) ([3]; HFIPA:acetone (10:90), Slurry, RT, 17 d): Form A
- XRPD Result (stable form screening) ([3]; MIBK, Slurry, ~80° C., 1 d): Form A
- XRPD Result (stable form screening) ([3]; MeOH, Slurry, RT, 3 d, TC, 20 to 30° C., 10 d): Form A
- XRPD Result (stable form screening) ([3]; NMP:MeOH (10:90), Slurry, RT, 17 d): Form A
- XRPD Result (stable form screening) ([3]; NMP:toluene (80:20), Slurry, RT, 17 d): Form A
- XRPD Result (stable form screening) ([3]; NMP:water (50:50), Slurry, RT, 17 d): Form A
- XRPD Result (stable form screening) ([3]; THF:water (75:25), TC, 20 to 30° C., 10 d): Form A
- XRPD Result (stable form screening) ([3]; THF, Slurry, RT, 3 d, TC, 20 to 40° C., 10 d): Form A
- XRPD Result (stable form screening) ([3]; iPrOH, TC, 20 to 40° C., 10 d): Form A
- percent contribution to the metabolism of mavacamten (CYP2C9): 7.5%
- clearance and terminal half-life by phenotype ([4]; CYP2C19 poor metabolizers vs other patients (UM, EM and IM)): lower clearance and longer terminal half-life
- increase in exposure ([4]; PM genotype compared to normal CYP 2C19 metabolizer (NM) genotype): approximately 4 fold
- effect of CYP3A4/5 (CYP3A5) and CYP2C9 polymorphisms on pharmacokinetics (half-life, clearance rate) ([4]; human, in vivo): insignificant effects; also recorded: did not have a significant effect
- half-life [4, 5]: 6 to 9 days
- clearance [4, 5]: 10 to 100 mL/min
- half-life [4, 6]: 12 to 30 days
- clearance [4, 6]: < 15 mL/min
- percent contribution to the metabolism of mavacamten (CYP3A4/5): 18%
